In PMC9064588 (RSC Advances, 2019):

Molecular target: α-glucosidase (Maltase EC 3.2.1.20)
Assay: PNPG hydrolysis enzyme inhibition assay, absorbance at […] nm
Type: biochemical

Oc1cc(O)c2c(c1)O[C@@]1(c3ccc(O)c(O)c3)Oc3cc(O)c4c(c3[C@@H]2[C@H]1O)O[C@H](c1ccc(O)c(O)c1)[C@H](O)C4 [PCA2, Procyanidin A2]
IC50: 460 ± 10 nM
